The assay concerns the target ALK2 (Homo sapiens (Human), UniProt Q04771). Nature of the assay: ALK2 inhibition, LanthaScreen Eu Kinase Binding Assay (ThermoFisher Scientific / Life Technologies). Conditions: read-out: Measured Ki (IC50) Value for Compounds: IC50. As to the method: Biochemical assays to measure the inhibitory effects of the compounds were performed by ThermoFisher Scientific (Life Technologies). ALK2 inhibition was tested using LanthaScreen™ Eu Kinase Binding Assay screening protocol.
A general note: Time-resolved FRET reads energy transfer from a long-lived donor to a nearby acceptor.
ALK2, sequence (Q04771 21-509): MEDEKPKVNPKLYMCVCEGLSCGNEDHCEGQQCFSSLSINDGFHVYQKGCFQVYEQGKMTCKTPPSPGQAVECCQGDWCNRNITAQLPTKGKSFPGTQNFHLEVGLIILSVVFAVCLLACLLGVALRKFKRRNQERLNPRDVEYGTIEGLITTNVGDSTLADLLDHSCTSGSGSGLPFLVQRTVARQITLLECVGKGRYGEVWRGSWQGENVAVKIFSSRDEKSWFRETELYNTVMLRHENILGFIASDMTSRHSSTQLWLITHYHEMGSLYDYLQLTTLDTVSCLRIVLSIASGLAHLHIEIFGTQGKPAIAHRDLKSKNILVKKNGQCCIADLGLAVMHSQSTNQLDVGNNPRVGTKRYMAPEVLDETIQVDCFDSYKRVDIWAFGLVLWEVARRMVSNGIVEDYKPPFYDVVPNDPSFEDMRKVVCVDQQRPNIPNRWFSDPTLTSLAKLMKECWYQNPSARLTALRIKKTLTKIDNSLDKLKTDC
One may read the IC50 as the concentration that inhibits the measured activity by half. `COc1cc(-n2cnc(Nc3nc(N4CCC[C@H]4CO)nc4sc(CN5CCCCC5)cc34)c2)cc(OC)c1OC` [Compound 113b, (S)-(1-(6-(piperidin-1-ylmethyl)-4-((1-(3,4,5-trimethoxyphenyl)-1H-imidazol-4-yl)amino)thieno[2,3-d]pyrimidin-2-yl)pyrrolidin-2-yl)methanol]: the IC50 is less than 100 nM. Regarding `COCCN1CCN(Cc2ccc3c(Nc4cn(-c5cc(OC)c(OC)c(OC)c5)cn4)nc(N4CCC[C@H]4CO)nn23)CC1` [Compound 114b, (S)-(1-(7-((4-(2-methoxyethyl)piperazin-1-yl)methyl)-4-((1-(3,4,5-trimethoxyphenyl)-1H-imidazol-4-yl)amino)pyrrolo[2,1-f][1,2,4]triazin-2-yl)pyrrolidin-2-yl)methanol], the IC50 was less than 100 nM. For `COc1cc(-n2cnc(Nc3nc(N4CCC[C@H]4CO)c4ccccc4n3)c2)cc(OC)c1OC` [Compound 115b, (S)-(1-(2-((1-(3,4,5-trimethoxyphenyl)-1H-imidazol-4-yl)amino)quinazolin-4-yl)pyrrolidin-2-yl)methanol], the concentration for half-maximal inhibition (IC50) is less than 100 nM. Turning to `N#Cc1ccc(-n2cnc(Nc3nc(N4CCC[C@H]4CO)nn4cccc34)c2)cc1` [Compound 116c, (S)-4-(4-((2-(2-(hydroxymethyl)pyrrolidin-1-yl)pyrrolo[2,1-f][1,2,4]triazin-4-yl)amino)-1H-imidazol-1-yl)benzonitrile], the IC50 was 100 to 1000 nM. `COc1cc(-n2cnc(Nc3nc(N4CCC[C@H]4C(N)=O)nn4c(CN5CCCCC5)ccc34)c2)cc(OC)c1OC` [Compound 117a, (S)-1-(7-(piperidin-1-ylmethyl)-4-((1-(3,4,5-trimethoxyphenyl)-1H-imidazol-4-yl)amino)pyrrolo[2,1-f][1,2,4]triazin-2-yl)pyrrolidine-2-carboxamide]: the 50% inhibitory concentration (IC50) is less than 100 nM.

As for `COc1cc(-n2cnc(Nc3nc(N4CCC[C@H]4C(N)=O)nn4c(CN5CCC[C@H]5C(N)=O)ccc34)c2)cc(OC)c1OC` [Compound 118b, (S)-1-((2-((S)-2-carbamoylpyrrolidin-1-yl)-4-((1-(3,4,5-trimethoxyphenyl)-1H-imidazol-4-yl)amino)pyrrolo[2,1-f][1,2,4]triazin-7-yl)methyl)pyrrolidine-2-carboxamide], the IC50 was less than 100 nM. In the case of `N#Cc1cccc(-n2cnc(Nc3nc(N4CCC[C@H]4CO)nn4cccc34)c2)c1` [Compound 119c, (S)-3-(4-((2-(2-(hydroxymethyl)pyrrolidin-1-yl)pyrrolo[2,1-f][1,2,4]triazin-4-yl)amino)-1H-imidazol-1-yl)benzonitrile], the IC50 is less than 100 nM.

For `COc1cc(-n2cnc(Nc3nc(N4CCC[C@H]4CO)nn4c(CNCC5CC5)ccc34)c2)cc(OC)c1OC` [Compound 120a, (S)-(1-(7-(((cyclopropylmethyl)amino)methyl)-4-((1-(3,4,5-trimethoxyphenyl)-1H-imidazol-4-yl)amino)pyrrolo[2,1-f][1,2,4]triazin-2-yl)pyrrolidin-2-yl)methanol], the IC50 was less than 100 nM. For the compound `COc1cc(-n2cnc(Nc3nc(N4CCC[C@H]4CO)nn4c(CN5CCN(C(=O)OC(C)(C)C)CC5)ccc34)c2)cc(OC)c1OC` [Compound 121b, (S)-tert-butyl 4-((2-(2-(hydroxymethyl)pyrrolidin-1-yl)-4-((1-(3,4,5-trimethoxyphenyl)-1H-imidazol-4-yl)amino)pyrrolo[2,1-f][1,2,4]triazin-7-yl)methyl)piperazine-1-carboxylate], the IC50 is less than 100 nM. The same measure for `COc1cc(-n2cnc(Nc3nc(N4CCC[C@H]4CO)nn4c(CN5CCNCC5)ccc34)c2)cc(OC)c1OC` [Compound 122a, (S)-(1-(7-(piperazin-1-ylmethyl)-4-((1-(3,4,5-trimethoxyphenyl)-1H-imidazol-4-yl)amino)pyrrolo[2,1-f][1,2,4]triazin-2-yl)pyrrolidin-2-yl)methanol]: less than 100 nM. The same measure for `CC(=O)c1cc(-n2cnc(Nc3nc(N4CCC[C@H]4CO)nn4cccc34)c2)ccc1O` [Compound 123c, (S)-1-(2-hydroxy-5-(4-((2-(2-(hydroxymethyl)pyrrolidin-1-yl)pyrrolo[2,1-f][1,2,4]triazin-4-yl)amino)-1H-imidazol-1-yl)phenyl)ethanone]: less than 100 nM; for `COc1cc(C(N)=O)cc(-n2cnc(Nc3nc(N4CCC[C@H]4CO)nn4cccc34)c2)c1` [Compound 125c, (S)-3-(4-((2-(2-(hydroxymethyl)pyrrolidin-1-yl)pyrrolo[2,1-f][1,2,4]triazin-4-yl)amino)-1H-imidazol-1-yl)-5-methoxybenzamide]: less than 100 nM. As to `COc1cc(-n2cnc(Nc3nc(N4CCC[C@H]4C(N)=O)nn4c(C(=O)N5CCCCC5)ccc34)c2)cc(OC)c1OC` [Compound 126c, (S)-1-(7-(piperidine-1-carbonyl)-4-((1-(3,4,5-trimethoxyphenyl)-1H-imidazol-4-yl)amino)pyrrolo[2,1-f][1,2,4]triazin-2-yl)pyrrolidine-2-carboxamide], the IC50 was less than 100 nM. On to `N#Cc1cc(O)cc(-n2cnc(Nc3nc(N4CCC[C@H]4CO)nn4cccc34)c2)c1` [Compound 127b, (S)-3-hydroxy-5-(4-((2-(2-(hydroxymethyl)pyrrolidin-1-yl)pyrrolo[2,1-f][1,2,4]triazin-4-yl)amino)-1H-imidazol-1-yl)benzonitrile], for which the half-inhibitory concentration (IC50) was less than 100 nM. Turning to `OC[C@@H]1CCCN1c1nc(Nc2cn(-c3ccc(F)c(F)c3)cn2)c2cccn2n1` [Compound 128c, (S)-(1-(4-((1-(3,4-difluorophenyl)-1H-imidazol-4-yl)amino)pyrrolo[2,1-f][1,2,4]triazin-2-yl)pyrrolidin-2-yl)methanol], the 50% inhibitory concentration (IC50) was less than 100 nM. For `COc1cc(-n2cnc(Nc3nc(N4CCC[C@H]4CO)nn4c(CNC(C)C)ccc34)c2)cc(OC)c1OC` [Compound 129b, (S)-(1-(7-((isopropylamino)methyl)-4-((1-(3,4,5-trimethoxyphenyl)-1H-imidazol-4-yl)amino)pyrrolo[2,1-f][1,2,4]triazin-2-yl)pyrrolidin-2-yl)methanol] the value was less than 100 nM; for `COc1cc(-n2cnc(Nc3nc(N4CCC[C@H]4C(N)=O)nc4ccccc34)c2)cc(OC)c1OC` [Compound 130a, (S)-1-(4-((1-(3,4,5-trimethoxyphenyl)-1H-imidazol-4-yl)amino)quinazolin-2-yl)pyrrolidine-2-carboxamide], less than 100 nM; for `COc1cc(OC)cc(-n2cnc(Nc3nc(N4CCC[C@H]4C(N)=O)nn4cccc34)c2)c1` [Compound 131a, (S)-1-(4-((1-(3,5-dimethoxyphenyl)-1H-imidazol-4-yl)amino)pyrrolo[2,1-f][1,2,4]triazin-2-yl)pyrrolidine-2-carboxamide], less than 100 nM.

Consider `COc1cc(-n2cnc(Nc3nc(N4CCC[C@H]4C(N)=O)c4ccsc4n3)c2)cc(OC)c1OC` [Compound 132b, (S)-1-(2-((1-(3,4,5-trimethoxyphenyl)-1H-imidazol-4-yl)amino)thieno[2,3-d]pyrimidin-4-yl)pyrrolidine-2-carboxamide], for which the IC50 was less than 100 nM. Take `COc1cc(-n2cnc(Nc3nc(N4CCC[C@H]4CO)c4ccsc4n3)c2)cc(OC)c1OC` [Compound 133b, (S)-(1-(2-((1-(3,4,5-trimethoxyphenyl)-1H-imidazol-4-yl)amino)thieno[2,3-d]pyrimidin-4-yl)pyrrolidin-2-yl)methanol]: the IC50 was less than 100 nM. As for `COc1cc(-n2cnc(Nc3nc(-c4cccc(CO)c4)nn4cccc34)c2)cc(OC)c1OC` [Compound 134a, (3-(4-((1-(3,4,5-trimethoxyphenyl)-1H-imidazol-4-yl)amino)pyrrolo[2,1-f][1,2,4]triazin-2-yl)phenyl)methanol], the half-inhibitory concentration (IC50) was less than 100 nM.

As for `COc1cc(-n2cnc(Nc3nc(-c4ccccc4C(N)=O)nn4cccc34)c2)cc(OC)c1OC` [Compound 135a, 2-(4-((1-(3,4,5-trimethoxyphenyl)-1H-imidazol-4-yl)amino)pyrrolo[2,1-f][1,2,4]triazin-2-yl)benzamide], the IC50 was less than 100 nM.

`COc1cc(-n2cnc(Nc3nc(-c4cccc(C(N)=O)c4)nn4cccc34)c2)cc(OC)c1OC` [Compound 136a, 3-(4-((1-(3,4,5-trimethoxyphenyl)-1H-imidazol-4-yl)amino)pyrrolo[2,1-f][1,2,4]triazin-2-yl)benzamide]: the IC50 is less than 100 nM. For the compound `COc1cc(-n2cnc(Nc3nc(-c4ccccc4CO)nn4cccc34)c2)cc(OC)c1OC` [Compound 137a, (2-(4-((1-(3,4,5-trimethoxyphenyl)-1H-imidazol-4-yl)amino)pyrrolo[2,1-f][1,2,4]triazin-2-yl)phenyl)methanol], the IC50 was less than 100 nM.

With `COc1cc(-n2cnc(Nc3nc(N4CCC[C@H]4CO)c4sccc4n3)c2)cc(OC)c1OC` [Compound 138b, (S)-(1-(2-((1-(3,4,5-trimethoxyphenyl)-1H-imidazol-4-yl)amino)thieno[3,2-d]pyrimidin-4-yl)pyrrolidin-2-yl)methanol], the IC50 is less than 100 nM. `COc1cc(-n2cnc(Nc3nc(N4CCC[C@H]4C(N)=O)c4sccc4n3)c2)cc(OC)c1OC` [Compound 139b, (S)-1-(2-((1-(3,4,5-trimethoxyphenyl)-1H-imidazol-4-yl)amino)thieno[3,2-d]pyrimidin-4-yl)pyrrolidine-2-carboxamide]: the IC50 lay within 100 to 1000 nM. For `COc1cc(-n2cnc(Nc3nc(N4CCC[C@H]4CO)nc4cccnc34)c2)cc(OC)c1OC` [Compound 140c, (S)-(1-(4-((1-(3,4,5-trimethoxyphenyl)-1H-imidazol-4-yl)amino)pyrido[3,2-d]pyrimidin-2-yl)pyrrolidin-2-yl)methanol] the value was less than 100 nM; for `COc1cc(-n2cnc(Nc3nc(N4CCC[C@H]4CO)nc4c3ccn4S(=O)(=O)c3ccc(C)cc3)c2)cc(OC)c1OC` [Compound 141c, (S)-(1-(7-tosyl-4-((1-(3,4,5-trimethoxyphenyl)-1H-imidazol-4-yl)amino)-7H-pyrrolo[2,3-d]pyrimidin-2-yl)pyrrolidin-2-yl)methanol], less than 100 nM; for `COc1cc(-n2cnc(Nc3nc(N4CCC[C@H]4CO)nc4[nH]ccc34)c2)cc(OC)c1OC` [Compound 141d, (S)-(1-(4-((1-(3,4,5-trimethoxyphenyl)-1H-imidazol-4-yl)amino)-7H-pyrrolo[2,3-d]pyrimidin-2-yl)pyrrolidin-2-yl)methanol], less than 100 nM.

The values above are taken from patent US11661426B2, “Imidazole-containing inhibitors of ALK2 kinase” (BioCryst Pharmaceuticals, Inc., priority 2017, dated 2023).
